# US12552747B2, “Amino acid derivative containing non-steroidal anti-inflammatory drug structure and preparation method and application thereof” (priority 2020, dated 2026)
# Marks after values point to notes of the source that are not given here.
# Experiments:
# Lung cancer A549 cells = test: In vitro antitumor activity test (MTT), A549; assay type: cell-based; conditions: Homo sapiens, 24 h
# Protocol: (§1) 13 human tumor cell lines were selected and cultured in RPMI-1640 medium (Gibco company) containing 10% inactivated fetal bovine serum, 100 U/ml penicillin and 100 U/ml streptomycin, cultured at 37° C. in a 5% CO2 incubator, and passaged once every 2 days. Using the MTT method, cells in the logarithmic growth phase were digested with 0.25% trypsin, centrifuged at 1000 r/min for 5 min, 8×10^3 cells were added to each well, and seeded in a 96-well plate, and 180 μl of cell suspension was added to each well, and a blank was set at the same time. The 96-well plate inoculated with tumor cells was placed in a carbon dioxide incubator for 24 hours, and then 20 μl of the drug was added, and an equal volume of culture medium was added to the blank control well, and the drug was divided into 8 concentrations from 50 μg/L to 0.4 μg/L. Three duplicate wells were set for each drug concentration and placed in an incubator for 24 h. 10 μl of MTT solution (5 mg/ml) was added to each well, and the culture was continued for 4 h. The supernatant was aspirated and discarded, 100 μl of dimethyl sulfoxide (DMSO) solution was added to each well, placed on a micro shaker for 10 min, and the absorbance (A value) was measured at a wavelength of 492 nm in a microplate reader, and the inhibition rate of the drug on tumor cells was calculated according to the following formula.
# (§2) In this test, the IC50 value of the compound on tumor cells was calculated by the Origin software according to the inhibition rate of the compound. AC-201 in the following table was the abbreviation of PL-AC-201, and so on.
# [1] = test system: 13 human tumor cell lines; test: Average IC50 over the tumor cell lines (MTT); assay type: cell-based; conditions: mean IC50 for each tumor, read-out: AverageIC50
# Protocol: as §1, §2
# The ratio of the hemolytic concentration MHC of the compound to the mean IC50 for each tumor was referred to as the therapeutic index (TI). The safety of the compound was evaluated by the therapeutic index. The higher the therapeutic index, the greater the safety range of the compound.
# SK-hep1 liver tumors = test: Transplanted tumor in nude mice, intraperitoneal, SK-hep1; assay type: in vivo, BALB/c nude mice; conditions: 8 administrations; for Tumor inhibition rate / Tumor weight: SK-hep1, 5 mg/kg i.p. once every 3 days; for Body Weight After administration: SK-hep1 tumor-bearing BALB/c mice, 5 mg/kg i.p. once every 3 days
# Protocol: (§3) BALB/c nude mice were used to inoculate Bel-7402, HepG-2 and SK-hep1 liver tumors according to the transplanted tumor research method under aseptic operation, and the cell density was not less than 5×10^6/ml, 0.2 ml was inoculated subcutaneously in the axilla of the right hind limb of each mouse. After the cells were inoculated, the cells were administered intraperitoneally (concentration: 5 mg/kg), once every 3 days, for a total of 8 administrations. After the 2nd day of drug withdrawal, all tumor-bearing mice were sacrificed, and their body weight, tumor weight and tumor inhibition were weighed.
# HepG-2 liver tumors = test: Transplanted tumor in nude mice, intraperitoneal, HepG-2; assay type: in vivo, BALB/c nude mice; conditions: 8 administrations; for Tumor inhibition rate / Tumor weight: HepG-2, 5 mg/kg i.p. once every 3 days; for Body Weight After administration: HepG-2 tumor-bearing BALB/c mice, 5 mg/kg i.p. once every 3 days
# Protocol: as §3
# human red blood cells = test: Detection of hemolytic activity; assay type: cell-based
# Protocol: 2-3 ml of human blood was drawn using an anticoagulant tube, thoroughly mixed, and kept at 4° C. for later use. 2 ml of blood was aspirated and added with 2-3 ml of PBS, followed by gently pipetting and centrifugation for 5 min at 1000 rpm, which was repeated 3-4 times. After the last centrifugation, PBS was aspirated, PBS was added to 40 ml (20 times the volume), and the number of blood cells at this time was 2×10^8 cells/ml. The red blood cell suspension was added to the plate (U-shaped 96-well plate), and 70 μl/well was used as a negative well. Only PBS was added to blank wells, 140 μl/well. 2 ml of the red blood cell suspension was centrifuged, PBS was discarded, 2 ml of pure water was added, mixed well, and 140 μl/well was used as a positive well. The diluted polypeptide solutions of different concentrations were added to the plate, 70 μl/well. Incubated at 37° C., 87 rpm, shaken for 2h, centrifuged for 5 min at 3000 rpm. The OD value measured by microplate reader: After centrifugation, 90 μl of supernatant was drawn and transferred to a flat-bottom 96-well plate, and the OD value at 578 nm was measured by microplate reader. ODtest-OD negative >0.1 (the first concentration that met the conditions was MHC).
# [2] = test system: Cervical cancer Hela cells; test: In vitro antitumor activity test (MTT), Hela; assay type: cell-based; conditions: Homo sapiens, 24 h
# Protocol: as §1, §2
# Lung cancer H1299 cells = test: In vitro antitumor activity test (MTT), H1299; assay type: cell-based; conditions: Homo sapiens, NCI-H1299, 24 h
# Protocol: as §1, §2
# [3] = test system: Pancreatic cancer Bxpc-3 cells; test: In vitro antitumor activity test (MTT), Bxpc-3; assay type: cell-based; conditions: Homo sapiens; Pancreatic cancer Bxpc-3, MTT, 24 h
# Protocol: as §1, §2
# [4] = test system: Human osteosarcoma MG63 cells; test: In vitro antitumor activity test (MTT), MG63; assay type: cell-based; conditions: MG-63, 24 h
# Protocol: as §1, §2
# Lung cancer H460 cells = test: In vitro antitumor activity test (MTT), H460; assay type: cell-based; conditions: Homo sapiens, NCI-H460, 24 h
# Protocol: as §1, §2
# [5] = test system: Breast cancer MCF-7 cells; test: In vitro antitumor activity test (MTT), MCF-7; assay type: cell-based; conditions: Homo sapiens, MCF7; Breast cancer MCF-7, MTT, 24 h
# Protocol: as §1, §2
# Bel-7402 liver tumors = test: Transplanted tumor in nude mice, intraperitoneal, Bel-7402; assay type: in vivo, BALB/c nude mice; conditions: 8 administrations; for Tumor inhibition rate / Tumor weight: Bel-7402, 5 mg/kg i.p. once every 3 days; for Body Weight After administration: Bel-7402 tumor-bearing BALB/c mice, 5 mg/kg i.p. once every 3 days
# Protocol: as §3
# Lung cancer H292 cells = test: In vitro antitumor activity test (MTT), H292; assay type: cell-based; conditions: Homo sapiens, NCI-H292, 24 h
# Protocol: as §1, §2
# [6] = test system: Liver cancer HepG-2 cells; test: In vitro antitumor activity test (MTT), HepG-2; assay type: cell-based; conditions: Homo sapiens, HepG2; Liver cancer HepG-2, MTT, 24 h
# Protocol: as §1, §2
# [7] = test system: Liver cancer SK-hep1 cells; test: In vitro antitumor activity test (MTT), SK-hep1; assay type: cell-based; conditions: Homo sapiens, 24 h
# Protocol: as §1, §2
# [8] = Acute toxicity test of single administration to ICR mice; conditions: mouse, in vivo, intravenous, single tail vein injection, observed 7 days
# Protocol: ICR mice, 18-22 g, were raised in a common-grade animal room, fed with common feed, and ingested freely. The group distance and dose were determined after exploring the Dm and Dn of the compounds of the examples. Five concentrations of the compounds of the examples were formulated at the desired dose. The corresponding doses of drugs were injected into the tail vein according to body weight, and the blank control group was injected with normal saline. Immediately after administration, the performance and death of each animal were observed and recorded, and the possible toxic reaction or death of animals within 7 days after a single administration was observed and recorded.
# Melanoma B16 cells = test: In vitro antitumor activity test (MTT), B16; assay type: cell-based; conditions: 24 h
# Protocol: as §1, §2
# [9] = test system: Liver cancer Bel-7402 cells; test: In vitro antitumor activity test (MTT), Bel-7402; assay type: cell-based; conditions: Homo sapiens; Liver cancer Bel-7402, MTT, 24 h
# Protocol: as §1, §2
# Colon cancer HT29 cells = test: In vitro antitumor activity test (MTT), HT29; assay type: cell-based; conditions: Homo sapiens, HT-29, 24 h
# Protocol: as §1, §2
# [10] = human red blood cells, 37° C., 2h, first concentration with ODtest-OD negative >0.1
smiles,measurement,setting,value
COc1ccc2c(c1)c(CC(=O)NC(Cc1ccc(-c3ccccc3)cc1)C(=O)NC1CC(C)(C)NC(C)(C)C1)c(C)n2C(=O)c1ccc(Cl)cc1 (stereo not drawn) [PL-AC-205],IC50,Lung cancer A549 cells,0.0245 µM
same,IC50,[1],0.0253 µM
same,Tumor inhibition rate,SK-hep1 liver tumors,62.0** %
same,Tumor weight,SK-hep1 liver tumors,425.8 ± 10.7 mg
same,Body Weight After administration,SK-hep1 liver tumors,22.2 ± 0.9 g
same,Tumor inhibition rate,HepG-2 liver tumors,^Δ71.8** %
same,Tumor weight,HepG-2 liver tumors,465.6 ± 5.9 mg
same,Body Weight After administration,HepG-2 liver tumors,21.9 ± 1.2 g
same,MHC,"human red blood cells; hemolytic concentration, in nM",4.2e+06 nM
same,MHC,human red blood cells; [10],3000 µg/mL
same,IC50,[2],0.0195 µM
same,IC50,Lung cancer H1299 cells,0.0203 µM
same,IC50,[3],0.0453 µM
same,IC50,[4],0.0257 µM
same,IC50,Lung cancer H460 cells,0.0203 µM
same,IC50,[5],0.0232 µM
same,Tumor inhibition rate,Bel-7402 liver tumors,^ΔΔ69.4** %
same,Tumor weight,Bel-7402 liver tumors,242.8 ± 6.6 mg
same,Body Weight After administration,Bel-7402 liver tumors,23.9 ± 0.6 g
same,IC50,Lung cancer H292 cells,0.0274 µM
same,IC50,[6],0.0162 µM
same,IC50,[7],0.0124 µM
same,LD50 at 7 days,[8],35.6 mg/kg
same,IC50,Melanoma B16 cells,0.0317 µM
same,IC50,[9],< 0.0382 µM
same,IC50,Colon cancer HT29 cells,0.037 µM
"CC1(C)CC(NC(=O)C(Cc2ccc(-c3ccccc3)cc2)NC(=O)c2cc3ccccc3n2Cc2ccccc2)CC(C)(C)N1 (stereo not drawn) [PL-AC-15, reference compound]",IC50,Lung cancer A549 cells,0.0312 µM
same,IC50,[1],0.032 µM
same,Tumor inhibition rate,SK-hep1 liver tumors,60.6** %
same,Tumor weight,SK-hep1 liver tumors,441.5 ± 10.8 mg
same,Body Weight After administration,SK-hep1 liver tumors,23.2 ± 0.3 g
same,Tumor inhibition rate,HepG-2 liver tumors,66.7** %
same,Tumor weight,HepG-2 liver tumors,549.9 ± 10.2 mg
same,Body Weight After administration,HepG-2 liver tumors,23.8 ± 1.0 g
same,MHC,"human red blood cells; hemolytic concentration, in nM",1.6e+06 nM
same,MHC,human red blood cells; [10],1000 µg/mL
same,IC50,[2],0.0197 µM
same,IC50,Lung cancer H1299 cells,0.0244 µM
same,IC50,[3],0.0489 µM
same,IC50,[4],0.0258 µM
same,IC50,Lung cancer H460 cells,0.022 µM
same,IC50,[5],0.0232 µM
same,Tumor inhibition rate,Bel-7402 liver tumors,61.8** %
same,Tumor weight,Bel-7402 liver tumors,302.9 ± 0.8 mg
same,Body Weight After administration,Bel-7402 liver tumors,25.2 ± 1.1 g
same,IC50,Lung cancer H292 cells,0.0283 µM
same,IC50,[6],0.0162 µM
same,IC50,[7],0.0264 µM
same,LD50 at 7 days,[8],23.6 mg/kg
same,IC50,Melanoma B16 cells,0.0305 µM
same,IC50,[9],0.0817 µM
same,IC50,Colon cancer HT29 cells,0.0382 µM
CC(C(=O)NC(Cc1ccc(-c2ccccc2)cc1)C(=O)NC1CC(C)(C)NC(C)(C)C1)c1cccc(C(=O)c2ccccc2)c1 (stereo not drawn) [PL-AC-206],IC50,Lung cancer A549 cells,0.0275 µM
same,IC50,[1],0.0246 µM
same,Tumor inhibition rate,SK-hep1 liver tumors,^ΔΔ69.9** %
same,Tumor weight,SK-hep1 liver tumors,337.3 ± 6.1 mg
same,Body Weight After administration,SK-hep1 liver tumors,23.0 ± 1.5 g
same,Tumor inhibition rate,HepG-2 liver tumors,^ΔΔ74.6** %
same,Tumor weight,HepG-2 liver tumors,468.9 ± 2.2 mg
same,Body Weight After administration,HepG-2 liver tumors,23.5 ± 1.1 g
same,MHC,"human red blood cells; hemolytic concentration, in nM",4.9e+06 nM
same,MHC,human red blood cells; [10],3000 µg/mL
same,IC50,[2],0.0192 µM
same,IC50,Lung cancer H1299 cells,0.0202 µM
same,IC50,[3],0.0377 µM
same,IC50,[4],0.0249 µM
same,IC50,Lung cancer H460 cells,0.02 µM
same,IC50,[5],0.0225 µM
same,Tumor inhibition rate,Bel-7402 liver tumors,^ΔΔ71.4** %
same,Tumor weight,Bel-7402 liver tumors,226.8 ± 9.1 mg
same,Body Weight After administration,Bel-7402 liver tumors,23.8 ± 1.3 g
same,IC50,Lung cancer H292 cells,0.0241 µM
same,IC50,[6],0.0161 µM
same,IC50,[7],0.0157 µM
same,LD50 at 7 days,[8],31.7 mg/kg
same,IC50,Melanoma B16 cells,0.0301 µM
same,IC50,[9],< 0.0382 µM
same,IC50,Colon cancer HT29 cells,0.0374 µM
